Experimental data reported in ChEMBL document CHEMBL4699502, “Discovery of 1-(1H-indazol-4-yl)-3-((1-phenyl-1H-pyrazol-5-yl)methyl) ureas as potent and thermoneutral TRPV1 antagonists” (Bioorg Med Chem Lett, 2020).
Calls of active or inactive are those of the source. No cut-off for these calls is given here.

Legend:
[1] = target: T1, Transient receptor potential cation channel subfamily V member 1 (Homo sapiens, UniProt Q8NER1); experiment: Antagonist activity at human TRPV1 expressed in CHO-K1 cells assessed as inhibition of capsaicin-induced Ca2+ response treated with compound 6 mins prior to capsaicin addition and measured after overnight incubation by FLIPR assay; assay type: cell-based
T1 sequence (Q8NER1 whole entry): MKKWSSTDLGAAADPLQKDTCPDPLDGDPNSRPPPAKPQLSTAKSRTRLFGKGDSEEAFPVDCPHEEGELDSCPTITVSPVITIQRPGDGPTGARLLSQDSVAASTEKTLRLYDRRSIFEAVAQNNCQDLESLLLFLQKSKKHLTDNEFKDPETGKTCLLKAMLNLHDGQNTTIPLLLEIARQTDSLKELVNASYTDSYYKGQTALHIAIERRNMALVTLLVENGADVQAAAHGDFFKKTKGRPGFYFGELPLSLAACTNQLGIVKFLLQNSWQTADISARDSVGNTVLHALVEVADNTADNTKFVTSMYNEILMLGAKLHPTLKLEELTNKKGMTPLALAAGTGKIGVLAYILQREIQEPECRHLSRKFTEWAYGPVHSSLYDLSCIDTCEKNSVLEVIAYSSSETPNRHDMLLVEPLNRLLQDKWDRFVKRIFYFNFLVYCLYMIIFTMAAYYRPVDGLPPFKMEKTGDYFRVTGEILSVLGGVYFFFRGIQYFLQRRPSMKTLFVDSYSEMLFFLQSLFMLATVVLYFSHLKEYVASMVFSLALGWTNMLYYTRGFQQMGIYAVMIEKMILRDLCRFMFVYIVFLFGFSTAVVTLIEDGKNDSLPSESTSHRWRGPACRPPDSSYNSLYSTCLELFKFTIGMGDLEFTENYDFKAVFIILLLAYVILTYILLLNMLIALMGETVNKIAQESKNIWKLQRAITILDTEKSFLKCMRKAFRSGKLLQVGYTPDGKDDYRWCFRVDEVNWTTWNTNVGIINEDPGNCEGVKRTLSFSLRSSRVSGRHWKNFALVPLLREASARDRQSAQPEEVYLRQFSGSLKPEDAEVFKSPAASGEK

[2] = target: T1, Transient receptor potential cation channel subfamily V member 1; experiment: Partial agonist activity at human TRPV1 expressed in CHO-K1 cells assessed as induction of Ca2+ response treated with compound 6 mins prior to capsaicin addition and measured after overnight incubation by FLIPR assay; assay type: cell-based; settings: filed as partial agonist
[3] = In vivo antagonist activity at TRPV1 in mouse assessed as inhibition of capsaicin-induced hypothermia at 10 mg/kg, po; assay type: functional
[4] = Induction of hyperthermia in mouse assessed as effect on body temperature by measuring thermo-neutral activity at 10 mg/kg, po; assay type: organism-based; settings: in vivo
[5] = target: T1, Transient receptor potential cation channel subfamily V member 1; experiment: Agonist activity at human TRPV1 expressed in CHO-K1 cells assessed as induction of Ca2+ response treated with compound 6 mins prior to capsaicin addition and measured after overnight incubation by FLIPR assay; assay type: cell-based; settings: filed as agonist

SMILES	Ki [1] [nM]	further results
O=C(NCc1cc(C(F)(F)F)nn1-c1cccc(Cl)c1)Nc1ccc2cn[nH]c2c1		inhibition ([1]; filed as antagonist): Active
Cc1ccc(-n2nc(C(C)(C)C)cc2CNC(=O)Nc2cccc3[nH]ncc23)cc1C		Activity [2]: Active
Cn1ncc2c(NC(=O)NCc3cc(C(F)(F)F)nn3-c3cccc(F)c3)cccc21	7	
Cn1ncc2c(NC(=O)NCc3cc(C(C)(C)C)nn3-c3cccc(Cl)c3)cccc21	0.4	inhibition in vivo at 10 mg/kg [3]: 14%; Activity [4]: Non-Toxic
COc1ccc(-n2nc(C(C)(C)C)cc2CNC(=O)Nc2cccc3[nH]ncc23)cc1	62.9	
Cn1ncc2c(NC(=O)NCc3cc(C(F)(F)F)nn3-c3ccc(F)c(Cl)c3)cccc21	1.9	
Cn1cc2c(NC(=O)NCc3cc(C(C)(C)C)nn3-c3cccc(Cl)c3)cccc2n1		Activity [5]: Active
Cn1ncc2cc(NC(=O)NCc3cc(C(F)(F)F)nn3-c3cccc(Cl)c3)ccc21	61	
Cn1ncc2c(NC(=O)NCc3cc(C(F)(F)F)nn3-c3ccc(Cl)cc3)cccc21	2.7	
CC(C)(C)c1cc(CNC(=O)Nc2cccc3[nH]ncc23)n(-c2ccc(F)cc2)n1	2.2	
Cn1ncc2c(NC(=O)NCc3cc(C(C)(C)C)nn3-c3ccc(C(F)(F)F)cc3)cccc21	12.4	
O=C(NCc1cc(C(F)(F)F)nn1-c1ccc(Cl)cc1)Nc1cccc2[nH]ncc12	2.5	
Cn1ncc2c(NC(=O)NCc3cc(C(C)(C)C)nn3-c3ccc(Cl)cc3)cccc21	9.5	
Cn1ncc2cc(NC(=O)NCc3cc(C(C)(C)C)nn3-c3cccc(Cl)c3)ccc21		Activity [5]: Active
Cn1ncc2ccc(NC(=O)NCc3cc(C(F)(F)F)nn3-c3cccc(Cl)c3)cc21		Activity [2]: Active
O=C(NCc1cc(C(F)(F)F)nn1-c1ccc(F)c(Cl)c1)Nc1cccc2[nH]ncc12	0.6	
Cn1cc2c(NC(=O)NCc3cc(C(F)(F)F)nn3-c3cccc(Cl)c3)cccc2n1		Activity [5]: Active
CC(C)(C)c1cc(CNC(=O)Nc2ccc3[nH]ncc3c2)n(-c2cccc(Cl)c2)n1		Activity [5]: Active
CC(C)(C)c1cc(CNC(=O)Nc2ccc3cn[nH]c3c2)n(-c2cccc(Cl)c2)n1		Activity [2]: Active
Cn1ncc2ccc(NC(=O)NCc3cc(C(C)(C)C)nn3-c3cccc(Cl)c3)cc21		Activity [5]: Active
Cn1ncc2c(NC(=O)NCc3cc(C(F)(F)F)nn3-c3ccc(C(F)(F)F)cc3)cccc21	3.9	
CC(=O)n1ncc2c(NC(=O)NCc3cc(C(C)(C)C)nn3-c3cccc(Cl)c3)cccc21	29.5	
